The numbers were not newly measured in US20240285636A1, “PHARMACEUTICAL COMPOSITION AND USE OF THE PHARMACEUTICAL COMPOSITION” (LIBBS FARMACÊUTICA LTDA, priority 2021, published 2024), which cites them from elsewhere.

For the series the following is noted: class IV = low solubility and low permeability.

Take `CCCSc1nc(N[C@@H]2C[C@H]2c2ccc(F)c(F)c2)c2nnn([C@@H]3C[C@H](OCCO)[C@@H](O)[C@H]3O)c2n1` (relative stereo) [Ticagrelor, {1S-[1α,2α,3β(1S*,2R*),5β}-3-(7-{[2-(3,4-difluorophenyl)-cyclopropyl]amino}-5-(propylthio)-3H-1,2,3-triazol[4,5-d]pyrimidin-3-yl)-5-(2-hydroxyethoxy)cyclopentane-1,2-diol]: the “Biopharmaceutical Classification System class” value is “class IV”.
